From PubChem BioAssay AID1259407 (Chemical Carcinogenesis Research Information System (CCRIS), 2018)
The source made the active and inactive calls. The rule behind the calls is not given here.

System: CCRIS mutagenicity, Ames/micronucleus/aberration tests
Test: CCRIS mutagenicity studies

`c1ccc(NNc2ccccc2)cc1` was tested, and the mutagenic call (End Point: IN VITRO CHROMOSOMAL ABERRATIONS, Test System: CHINESE HAMSTER OVARY CELLS, Metabolic Activation: NONE) was “active; positive; statistically significant increase, but not dose-related”, the mutagenic call (End Point: IN VITRO CHROMOSOMAL ABERRATIONS, Test System: CHINESE HAMSTER OVARY CELLS, Metabolic Activation: RAT, LIVER, S-9, AROCLOR 1254) was “active; positive” and the mutagenic call (Test System: AMES SALMONELLA TYPHIMURIUM, Strain/Indicator: TA98, Metabolic Activation: HAMSTER, LIVER, S-9, AROCLOR 1254, Method: STANDARD PLATE) was “inactive; negative”. The mutagenic call (Test System: AMES SALMONELLA TYPHIMURIUM, Strain/Indicator: TA98, Metabolic Activation: HAMSTER, LIVER, S-9, Method: STANDARD PLATE) was “inactive; negative”, the mutagenic call (Test System: AMES SALMONELLA TYPHIMURIUM, Strain/Indicator: TA98, Metabolic Activation: MOUSE, LIVER, S-9, AROCLOR 1254, Method: STANDARD PLATE) was “inactive; negative” and the mutagenic call (Test System: AMES SALMONELLA TYPHIMURIUM, Strain/Indicator: TA98, Metabolic Activation: MOUSE, LIVER, S-9, Method: STANDARD PLATE) was “inactive; negative”. The mutagenic call (Test System: AMES SALMONELLA TYPHIMURIUM, Strain/Indicator: TA98, Metabolic Activation: NONE, Method: STANDARD PLATE) was “inactive; negative”, the mutagenic call (Test System: AMES SALMONELLA TYPHIMURIUM, Strain/Indicator: TA98, Metabolic Activation: RAT, LIVER, S-9, Method: STANDARD PLATE) was “inactive; negative” and the mutagenic call (Test System: AMES SALMONELLA TYPHIMURIUM, Strain/Indicator: TA100, Metabolic Activation: HAMSTER, LIVER, S-9, AROCLOR 1254, Method: STANDARD PLATE) was “inactive; negative”. For the same compound, the mutagenic call (Test System: AMES SALMONELLA TYPHIMURIUM, Strain/Indicator: TA100, Metabolic Activation: HAMSTER, LIVER, S-9, Method: STANDARD PLATE) was “inactive; negative”, the mutagenic call (Test System: AMES SALMONELLA TYPHIMURIUM, Strain/Indicator: TA100, Metabolic Activation: MOUSE, LIVER, S-9, AROCLOR 1254, Method: STANDARD PLATE) was “active; positive” and the mutagenic call (Test System: AMES SALMONELLA TYPHIMURIUM, Strain/Indicator: TA100, Metabolic Activation: MOUSE, LIVER, S-9, Method: STANDARD PLATE) was “inactive; negative”. For the same compound, the mutagenic call (Test System: AMES SALMONELLA TYPHIMURIUM, Strain/Indicator: TA100, Metabolic Activation: NONE, Method: STANDARD PLATE) was “inactive; negative”, the mutagenic call (Test System: AMES SALMONELLA TYPHIMURIUM, Strain/Indicator: TA100, Metabolic Activation: RAT, LIVER, S-9, AROCLOR 1254, Method: STANDARD PLATE) was “active; positive” and the mutagenic call (Test System: AMES SALMONELLA TYPHIMURIUM, Strain/Indicator: TA100, Metabolic Activation: RAT, LIVER, S-9, Method: STANDARD PLATE) was “inactive; negative”. For the same compound, the mutagenic call (Test System: AMES SALMONELLA TYPHIMURIUM, Strain/Indicator: TA1535, Metabolic Activation: HAMSTER, LIVER, S-9, AROCLOR 1254, Method: STANDARD PLATE) was “inactive; negative”, the mutagenic call (Test System: AMES SALMONELLA TYPHIMURIUM, Strain/Indicator: TA1535, Metabolic Activation: HAMSTER, LIVER, S-9, Method: STANDARD PLATE) was “inactive; negative” and the mutagenic call (Test System: AMES SALMONELLA TYPHIMURIUM, Strain/Indicator: TA1535, Metabolic Activation: MOUSE, LIVER, S-9, Method: STANDARD PLATE) was “inactive; negative”. The mutagenic call (Test System: AMES SALMONELLA TYPHIMURIUM, Strain/Indicator: TA1535, Metabolic Activation: NONE, Method: STANDARD PLATE) was “inactive; negative”, the mutagenic call (Test System: AMES SALMONELLA TYPHIMURIUM, Strain/Indicator: TA1535, Metabolic Activation: RAT, LIVER, S-9, AROCLOR 1254, Method: STANDARD PLATE) was “inactive; negative” and the mutagenic call (Test System: AMES SALMONELLA TYPHIMURIUM, Strain/Indicator: TA1535, Metabolic Activation: RAT, LIVER, S-9, Method: STANDARD PLATE) was “inactive; negative”. For the same compound, the mutagenic call (Test System: AMES SALMONELLA TYPHIMURIUM, Strain/Indicator: TA1537, Metabolic Activation: HAMSTER, LIVER, S-9, AROCLOR 1254, Method: STANDARD PLATE) was “inactive; negative”, the mutagenic call (Test System: AMES SALMONELLA TYPHIMURIUM, Strain/Indicator: TA1537, Metabolic Activation: HAMSTER, LIVER, S-9, Method: STANDARD PLATE) was “inactive; negative” and the mutagenic call (Test System: AMES SALMONELLA TYPHIMURIUM, Strain/Indicator: TA1537, Metabolic Activation: MOUSE, LIVER, S-9, AROCLOR 1254, Method: STANDARD PLATE) was “inactive; negative”. The mutagenic call (Test System: AMES SALMONELLA TYPHIMURIUM, Strain/Indicator: TA1537, Metabolic Activation: MOUSE, LIVER, S-9, Method: STANDARD PLATE) was “inactive; negative”, the mutagenic call (Test System: AMES SALMONELLA TYPHIMURIUM, Strain/Indicator: TA1537, Metabolic Activation: NONE, Method: STANDARD PLATE) was “inactive; negative” and the mutagenic call (Test System: AMES SALMONELLA TYPHIMURIUM, Strain/Indicator: TA1537, Metabolic Activation: RAT, LIVER, S-9, AROCLOR 1254, Method: STANDARD PLATE) was “inactive; negative”. The mutagenic call (Test System: AMES SALMONELLA TYPHIMURIUM, Strain/Indicator: TA1537, Metabolic Activation: RAT, LIVER, S-9, Method: STANDARD PLATE) was “inactive; negative”, the mutagenic call (Test System: AMES SALMONELLA TYPHIMURIUM, Strain/Indicator: TA1538, Metabolic Activation: HAMSTER, LIVER, S-9, AROCLOR 1254, Method: STANDARD PLATE) was “inactive; negative” and the mutagenic call (Test System: AMES SALMONELLA TYPHIMURIUM, Strain/Indicator: TA1538, Metabolic Activation: HAMSTER, LIVER, S-9, Method: STANDARD PLATE) was “inactive; negative”. The mutagenic call (Test System: AMES SALMONELLA TYPHIMURIUM, Strain/Indicator: TA1538, Metabolic Activation: MOUSE, LIVER, S-9, AROCLOR 1254, Method: STANDARD PLATE) was “inactive; negative”, the mutagenic call (Test System: AMES SALMONELLA TYPHIMURIUM, Strain/Indicator: TA1538, Metabolic Activation: MOUSE, LIVER, S-9, Method: STANDARD PLATE) was “inactive; negative” and the mutagenic call (Test System: AMES SALMONELLA TYPHIMURIUM, Strain/Indicator: TA1538, Metabolic Activation: NONE, Method: STANDARD PLATE) was “inactive; negative”. The mutagenic call (Test System: AMES SALMONELLA TYPHIMURIUM, Strain/Indicator: TA1538, Metabolic Activation: RAT, LIVER, S-9, AROCLOR 1254, Method: STANDARD PLATE) was “inactive; negative”, the mutagenic call (Test System: AMES SALMONELLA TYPHIMURIUM, Strain/Indicator: TA1538, Metabolic Activation: RAT, LIVER, S-9, Method: STANDARD PLATE) was “inactive; negative” and the mutagenic call (Test System: E. COLI, Strain/Indicator: WP2 UVRA, Metabolic Activation: HAMSTER, LIVER, S-9, AROCLOR 1254, Method: STANDARD PLATE) was “inactive; negative”. The mutagenic call (Test System: E. COLI, Strain/Indicator: WP2 UVRA, Metabolic Activation: HAMSTER, LIVER, S-9, Method: STANDARD PLATE) was “inactive; negative”, the mutagenic call (Test System: E. COLI, Strain/Indicator: WP2 UVRA, Metabolic Activation: MOUSE, LIVER, S-9, AROCLOR 1254, Method: STANDARD PLATE) was “inactive; negative” and the mutagenic call (Test System: E. COLI, Strain/Indicator: WP2 UVRA, Metabolic Activation: MOUSE, LIVER, S-9, Method: STANDARD PLATE) was “inactive; negative”. For the same compound, the mutagenic call (Test System: E. COLI, Strain/Indicator: WP2 UVRA, Metabolic Activation: NONE, Method: STANDARD PLATE) was “inactive; negative”, the mutagenic call (Test System: E. COLI, Strain/Indicator: WP2 UVRA, Metabolic Activation: RAT, LIVER, S-9, AROCLOR 1254, Method: STANDARD PLATE) was “inactive; negative” and the mutagenic call (Test System: E. COLI, Strain/Indicator: WP2 UVRA, Metabolic Activation: RAT, LIVER, S-9, Method: STANDARD PLATE) was “inactive; negative”.
